Source: patent publication EP0200211A1, “Diagnostic radiopharmaceutical compounds” (THE RESEARCH FOUNDATION OF STATE UNIVERSITY OF NEW YORK, priority 1985, dated 1986)

Test: Autoradiogram comparison of rat brain distribution of radioactivity after intravenous injection
Assay type: in vivo, Sprague-Dawley male rat
Settings: autoradiograms at 2 and 15 minutes after injection, statement concerns the second (15 minute) autoradiogram
Source text: • Figure 1 is an autoradiogram of rat brain distribution of radioactivity two (2) minutes after intravenous injection with a radioactive compound of the prior art. • Figure 2 is an autoradiogram of rat brain distribution of radioactivity fifteen (15) minutes after intravenous injection with a radioactive compound of the prior art. • Figure 3 is an autoradiogram of rat brain distribution of radioactivity two (2) minutes after intravenous injection with a radioactive compound of the invention. • Figure 4 is an autoradiogram of rat brain distribution of radioactivity fifteen (15) minutes after intravenous injection with a radioactive compound of the invention.
Autoradiograms were made of Sprague-Dawley male rat brains of animals that were intravenously injected with 6-[N,N-diethylamino]methyl-3,3,10,10-tetramethyl-1,2-dithia-5,8-diazacylcodecane technetium-99m complex of the invention and 10,10,13,13-tetramethyl-11,12-dithia-8,15-diazaspiro-[5.9)pentadecane-technetium-99m complex of the prior art. The autoradiograms were taken at 2 and 15 minute intervals after injection.

definition of the autoradiogram of rat brain | Compound
sharp definition obtained and retained | CCN(CC)CC1CNCC(C)(C)SSC(C)(C)CN1.[99Tc] (centres unmarked) [6-[N,N-diethylamino]methyl-3,3,10,10-tetramethyl-1,2-dithia-5,8-diazacylcodecane technetium-99m complex]
lack of clear definition | CC1(C)CNCC2(CCCCC2)NCC(C)(C)SS1.[99Tc] [10,10,13,13-tetramethyl-11,12-dithia-8,15-diaza spiro [5.9] pentadecane-technetium-99m complex]
